In the assay the target is T1, bradykinin receptor of the B2 class (rat uterus) (Rattus norvegicus, UniProt P25023).
T1 construct: concentration effect curves to bradykinin (BK) on rat uterus in vitro; from tissue; host or cells: rat uterus
T1 sequence (P25023 1-396): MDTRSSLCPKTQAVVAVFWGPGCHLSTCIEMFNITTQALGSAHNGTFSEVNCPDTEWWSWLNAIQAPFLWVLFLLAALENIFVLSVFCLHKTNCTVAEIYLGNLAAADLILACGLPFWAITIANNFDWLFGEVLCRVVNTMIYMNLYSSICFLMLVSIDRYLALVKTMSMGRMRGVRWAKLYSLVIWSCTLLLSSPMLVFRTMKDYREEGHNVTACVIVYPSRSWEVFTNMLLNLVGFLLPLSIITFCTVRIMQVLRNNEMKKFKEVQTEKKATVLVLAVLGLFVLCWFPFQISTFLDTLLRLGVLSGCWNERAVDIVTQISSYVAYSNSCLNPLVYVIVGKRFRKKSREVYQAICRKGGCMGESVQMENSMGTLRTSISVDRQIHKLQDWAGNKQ
In words: Rat uterus (RU) in vitro, antagonism of bradykinin. The settings on record: for % RECOVERY: rat uterus. The procedure: Thus in vitro studies were performed on standard assay systems, namely, guinea-pig ileum (GPI), rat uterus (RU) and rabbit jugular vein (RJV). […] The PA2 can be defined as the negative logarithm of the molar concentration of the antagonist in the presence of which the potency of the agonist is reduced two-fold, i.e. twice the amount of agonist is required to produce a given response in the presence of, than in the absence of, the antagonist. A high potency of antagonism is indicated by a high PA2 value, i.e., a low concentration of antagonist is effective.
The percentage recovery (% Rec) was also determined for compounds with respect to each assay.
With respect to duration of activity, it is noted that after exposure to the highest concentration of antagonist, each tissue was washed extensively and then assessed for recovery from the antagonist effect.
Potency in the rat uterus assay was assessed as described above and PA2 values determined.

Setting [1] is: Table D, effect of linker length, read-out: pA2 (UTERUS) (converted).

Read-outs that look alike come from different tables or passages of the source. Square brackets hold non-standard residues; d marks the D form. Peptide text beside a SMILES is read from it. * marks the point of attachment. Hyp = O=C(O)[C@@H]1C[C@@H](O)CN1; X19 = CCCCCCNC(=O)C*

Take `CC(C)C[C@H](NC(=O)[C@@H](Cc1ccccc1)NC(=O)[C@H](CSC1CC(=O)N(CCN2C(=O)CC(SC[C@H](NC(=O)[C@H](Cc3ccccc3)NC(=O)CNC(=O)[C@@H]3C[C@@H](O)CN3C(=O)[C@@H]3CCCN3C(=O)[C@H](CCCNC(=N)N)NC(=O)[C@H](N)CCCNC(=N)N)C(=O)N[C@H](Cc3ccccc3)C(=O)N[C@@H](CC(C)C)C(=O)N[C@@H](CCCNC(=N)N)C(=O)O)C2=O)C1=O)NC(=O)[C@H](Cc1ccccc1)NC(=O)CNC(=O)[C@@H]1C[C@@H](O)CN1C(=O)[C@@H]1CCCN1C(=O)[C@H](CCCNC(=N)N)NC(=O)[C@H](N)CCCNC(=N)N)C(=O)N[C@@H](CCCNC(=N)N)C(=O)O` (stereo partly drawn) [CP-0162] (HELM PEPTIDE1{[dR].R.P.[Hyp].G.F.C.[dF].L.R}|PEPTIDE2{[dR].R.P.[Hyp].G.F.C.[dF].L.R}|CHEM1{[O=C1CC([*:1])C(=O)N1CCN1C(=O)CC([*:2])C1=O]}$PEPTIDE1,CHEM1,7:R3-1:R1|PEPTIDE2,CHEM1,7:R3-1:R2$$$V2.0): the “% REC (40 MIN)” value (Table D) was 90%. Under setting [1], the Kb is 5.01 nM.
`CC(C)C[C@H](NC(=O)[C@@H](Cc1ccccc1)NC(=O)[C@H](CSC1CC(=O)N(CCCCCCCCCCCCN2C(=O)CC(SC[C@H](NC(=O)[C@H](Cc3ccccc3)NC(=O)CNC(=O)[C@@H]3C[C@@H](O)CN3C(=O)[C@@H]3CCCN3C(=O)[C@H](CCCNC(=N)N)NC(=O)[C@H](N)CCCNC(=N)N)C(=O)N[C@H](Cc3ccccc3)C(=O)N[C@@H](CC(C)C)C(=O)N[C@@H](CCCNC(=N)N)C(=O)O)C2=O)C1=O)NC(=O)[C@H](Cc1ccccc1)NC(=O)CNC(=O)[C@@H]1C[C@@H](O)CN1C(=O)[C@@H]1CCCN1C(=O)[C@H](CCCNC(=N)N)NC(=O)[C@H](N)CCCNC(=N)N)C(=O)N[C@@H](CCCNC(=N)N)C(=O)O` (stereo partly drawn) [CP-0166] (HELM PEPTIDE1{[dR].R.P.[Hyp].G.F.C.[dF].L.R}|PEPTIDE2{[dR].R.P.[Hyp].G.F.C.[dF].L.R}|CHEM1{[O=C1CC([*:1])C(=O)N1CCCCCCCCCCCCN1C(=O)CC([*:2])C1=O]}$PEPTIDE1,CHEM1,7:R3-1:R1|PEPTIDE2,CHEM1,7:R3-1:R2$$$V2.0): under “Table D”, the “% REC (40 MIN)” value worked out at 0%. The Kb under setting [1] is 6.31 nM.
In the case of `CC(C)C[C@H](NC(=O)[C@@H](Cc1ccccc1)NC(=O)[C@H](CSC1CC(=O)N(CCCN2C(=O)CC(SC[C@H](NC(=O)[C@H](Cc3ccccc3)NC(=O)CNC(=O)[C@@H]3C[C@@H](O)CN3C(=O)[C@@H]3CCCN3C(=O)[C@H](CCCNC(=N)N)NC(=O)[C@H](N)CCCNC(=N)N)C(=O)N[C@H](Cc3ccccc3)C(=O)N[C@@H](CC(C)C)C(=O)N[C@@H](CCCNC(=N)N)C(=O)O)C2=O)C1=O)NC(=O)[C@H](Cc1ccccc1)NC(=O)CNC(=O)[C@@H]1C[C@@H](O)CN1C(=O)[C@@H]1CCCN1C(=O)[C@H](CCCNC(=N)N)NC(=O)[C@H](N)CCCNC(=N)N)C(=O)N[C@@H](CCCNC(=N)N)C(=O)O` (stereo partly drawn) [CP-0172] (HELM PEPTIDE1{[dR].R.P.[Hyp].G.F.C.[dF].L.R}|PEPTIDE2{[dR].R.P.[Hyp].G.F.C.[dF].L.R}|CHEM1{[O=C1CC([*:1])C(=O)N1CCCN1C(=O)CC([*:2])C1=O]}$PEPTIDE1,CHEM1,7:R3-1:R1|PEPTIDE2,CHEM1,7:R3-1:R2$$$V2.0), the “% REC (40 MIN)” value (Table D) is reported as 90%. Besides, the Kb under setting [1] was 2.51 nM.
For `N=C(N)NCCC[C@@H](N)C(=O)N[C@@H](CCCNC(=N)N)C(=O)N1CCC[C@H]1C(=O)N1C[C@H](O)C[C@H]1C(=O)NCC(=O)N[C@@H](Cc1ccccc1)C(=O)N[C@@H](CO)C(=O)N[C@H](Cc1ccccc1)C(=O)N[C@@H](Cc1ccccc1)C(=O)N[C@@H](CCCNC(=N)N)C(=O)O` [CP-0181, DArg^0 -Arg^1 -Pro^2 -Hyp^3 -Gly^4 -Phe^5 -Ser^6 -DPhe^7 -Phe^8 -Arg^9, reference compound], where the note is “Table F”, the “% RECOVERY” value is recorded as 100%. Besides, the Kb (Table F, read-out: RAT UTERUS pA2 (converted)) was 100 nM.
Regarding `CC(C)C[C@H](NC(=O)[C@@H](Cc1ccccc1)NC(=O)[C@H](CSC1CC(=O)N(CCCCN2C(=O)CC(SC[C@H](NC(=O)[C@H](Cc3ccccc3)NC(=O)CNC(=O)[C@@H]3C[C@@H](O)CN3C(=O)[C@@H]3CCCN3C(=O)[C@H](CCCNC(=N)N)NC(=O)[C@H](N)CCCNC(=N)N)C(=O)N[C@H](Cc3ccccc3)C(=O)N[C@@H](CC(C)C)C(=O)N[C@@H](CCCNC(=N)N)C(=O)O)C2=O)C1=O)NC(=O)[C@H](Cc1ccccc1)NC(=O)CNC(=O)[C@@H]1C[C@@H](O)CN1C(=O)[C@@H]1CCCN1C(=O)[C@H](CCCNC(=N)N)NC(=O)[C@H](N)CCCNC(=N)N)C(=O)N[C@@H](CCCNC(=N)N)C(=O)O` (stereo partly drawn) [CP-0209] (HELM PEPTIDE1{[dR].R.P.[Hyp].G.F.C.[dF].L.R}|PEPTIDE2{[dR].R.P.[Hyp].G.F.C.[dF].L.R}|CHEM1{[O=C1CC([*:1])C(=O)N1CCCCN1C(=O)CC([*:2])C1=O]}$PEPTIDE1,CHEM1,7:R3-1:R1|PEPTIDE2,CHEM1,7:R3-1:R2$$$V2.0), the “% REC (40 MIN)” value (Table D) came out at 50%. In addition, under setting [1], the Kb was 6.31 nM.
`CC(C)C[C@H](NC(=O)[C@@H](Cc1ccccc1)NC(=O)[C@H](CSC1CC(=O)N(CCCCCCCCN2C(=O)CC(SC[C@H](NC(=O)[C@H](Cc3ccccc3)NC(=O)CNC(=O)[C@@H]3C[C@@H](O)CN3C(=O)[C@@H]3CCCN3C(=O)[C@H](CCCNC(=N)N)NC(=O)[C@H](N)CCCNC(=N)N)C(=O)N[C@H](Cc3ccccc3)C(=O)N[C@@H](CC(C)C)C(=O)N[C@@H](CCCNC(=N)N)C(=O)O)C2=O)C1=O)NC(=O)[C@H](Cc1ccccc1)NC(=O)CNC(=O)[C@@H]1C[C@@H](O)CN1C(=O)[C@@H]1CCCN1C(=O)[C@H](CCCNC(=N)N)NC(=O)[C@H](N)CCCNC(=N)N)C(=O)N[C@@H](CCCNC(=N)N)C(=O)O` (stereo partly drawn) [CP-0211] (HELM PEPTIDE1{[dR].R.P.[Hyp].G.F.C.[dF].L.R}|PEPTIDE2{[dR].R.P.[Hyp].G.F.C.[dF].L.R}|CHEM1{[O=C1CC([*:1])C(=O)N1CCCCCCCCN1C(=O)CC([*:2])C1=O]}$PEPTIDE1,CHEM1,7:R3-1:R1|PEPTIDE2,CHEM1,7:R3-1:R2$$$V2.0): where the note is “Table D”, the “% REC (40 MIN)” value stood at 25%. Besides, the Kb under setting [1] was 3.98 nM.
As to `CC(C)C[C@H](NC(=O)[C@@H](Cc1ccccc1)NC(=O)[C@H](CSC1CC(=O)N(CCCCCCCCCN2C(=O)CC(SC[C@H](NC(=O)[C@H](Cc3ccccc3)NC(=O)CNC(=O)[C@@H]3C[C@@H](O)CN3C(=O)[C@@H]3CCCN3C(=O)[C@H](CCCNC(=N)N)NC(=O)[C@H](N)CCCNC(=N)N)C(=O)N[C@H](Cc3ccccc3)C(=O)N[C@@H](CC(C)C)C(=O)N[C@@H](CCCNC(=N)N)C(=O)O)C2=O)C1=O)NC(=O)[C@H](Cc1ccccc1)NC(=O)CNC(=O)[C@@H]1C[C@@H](O)CN1C(=O)[C@@H]1CCCN1C(=O)[C@H](CCCNC(=N)N)NC(=O)[C@H](N)CCCNC(=N)N)C(=O)N[C@@H](CCCNC(=N)N)C(=O)O` (stereo partly drawn) [CP-0229] (HELM PEPTIDE1{[dR].R.P.[Hyp].G.F.C.[dF].L.R}|PEPTIDE2{[dR].R.P.[Hyp].G.F.C.[dF].L.R}|CHEM1{[O=C1CC([*:1])C(=O)N1CCCCCCCCCN1C(=O)CC([*:2])C1=O]}$PEPTIDE1,CHEM1,7:R3-1:R1|PEPTIDE2,CHEM1,7:R3-1:R2$$$V2.0), the “% REC (40 MIN)” value (Table D) is listed as 0-10%. Besides, the Kb under setting [1] is 1 nM.
Turning to `CC(C)C[C@H](NC(=O)[C@@H](Cc1ccccc1)NC(=O)[C@H](CSC1CC(=O)N(CCCCCCCCCCN2C(=O)CC(SC[C@H](NC(=O)[C@H](Cc3ccccc3)NC(=O)CNC(=O)[C@@H]3C[C@@H](O)CN3C(=O)[C@@H]3CCCN3C(=O)[C@H](CCCNC(=N)N)NC(=O)[C@H](N)CCCNC(=N)N)C(=O)N[C@H](Cc3ccccc3)C(=O)N[C@@H](CC(C)C)C(=O)N[C@@H](CCCNC(=N)N)C(=O)O)C2=O)C1=O)NC(=O)[C@H](Cc1ccccc1)NC(=O)CNC(=O)[C@@H]1C[C@@H](O)CN1C(=O)[C@@H]1CCCN1C(=O)[C@H](CCCNC(=N)N)NC(=O)[C@H](N)CCCNC(=N)N)C(=O)N[C@@H](CCCNC(=N)N)C(=O)O` (stereo partly drawn) [CP-0230] (HELM PEPTIDE1{[dR].R.P.[Hyp].G.F.C.[dF].L.R}|PEPTIDE2{[dR].R.P.[Hyp].G.F.C.[dF].L.R}|CHEM1{[O=C1CC([*:1])C(=O)N1CCCCCCCCCCN1C(=O)CC([*:2])C1=O]}$PEPTIDE1,CHEM1,7:R3-1:R1|PEPTIDE2,CHEM1,7:R3-1:R2$$$V2.0), where the note is “Table D”, the “% REC (40 MIN)” value was 0%. Also, under setting [1], the Kb is 3.98 nM.
As to `CCCCCCNC(=O)CSC[C@H](NC(=O)[C@H](Cc1ccccc1)NC(=O)CNC(=O)[C@@H]1C[C@@H](O)CN1C(=O)[C@@H]1CCCN1C(=O)[C@H](CCCNC(=N)N)NC(=O)[C@H](N)CCCNC(=N)N)C(=O)N[C@H](Cc1ccccc1)C(=O)N[C@@H](CC(C)C)C(=O)N[C@@H](CCCNC(=N)N)C(=O)O` [CP-0266] (H-[dR]RP[Hyp]GFC(X19)[dF]LR-OH), the Kb (Table H, monomer modifications, read-out: RAT UTERUS pA2 (converted)) is 6.31 nM. For the same compound, for the setting “Table H”, the “% RECOVERY” value was found to be 70%.
